Where a name gives a salt, the structure may show the parent alone.
Tests used:
Assay type in all cases: cell-based, mouse
MOR133-1 = test: High-throughput multiplexed odorant screening (Smell-seq), barcode RNA-seq readout; details: OR MOR133-1; pair called as hit, FDR=1%
Excerpt: (§1) We subsequently screened 182 odorants at three concentrations in triplicate against the OR cell library, the equivalent of ˜85,000 individual luciferase assays including controls (FIG. 10A, Table 2). Each 96-well plate in the assay contained positive control odorants and solvent DMSO wells for normalization (FIG. 16). We used the EdgeR software package to determine differentially responsive ORs based on a negative binomial model of barcode counts. We found 114 OR-odorant interactions (out of 7,200 possible), 81 of which are novel, and 24 interactions with 15 orphan receptors (FIG. 10C, FIG. 17 and Supplementary Table 4) (FDR=1%; Benjamini-Hochberg correction). Overall 28 of 39 receptors were activated by at least one odorant, and 68 of 182 odorants activated at least one OR (Table 4). We chose 37 interactions of at least 1.2 fold induction to test individually with a previously developed transient OR assay that has several important differences (FIG. 18). Of the 28 interactions called as hits at an FDR of 1%, 21 of them replicated in this orthogonal system (FIG. 17). […] Conversely, we also detect 14 interactions that this previous study tested, but called negative.

MOR165-1 = test: as above; details: OR MOR165-1; pair called as hit, FDR=1%
Excerpt: as §1

MOR119-1 = test: as above; details: OR MOR119-1; pair called as hit, FDR=1%
Excerpt: as §1

MOR19-1 [1] = test: Odorant-receptor activation luciferase assay (transient), orthogonal follow-up; details: interactions called as hits at an FDR of 1% tested individually
Excerpt: We subsequently screened 182 odorants at three concentrations in triplicate against the OR cell library, the equivalent of ˜85,000 individual luciferase assays including controls (FIG. 10A, Table 2). Each 96-well plate in the assay contained positive control odorants and solvent DMSO wells for normalization (FIG. 16). We used the EdgeR software package to determine differentially responsive ORs based on a negative binomial model of barcode counts. We found 114 OR-odorant interactions (out of 7,200 possible), 81 of which are novel, and 24 interactions with 15 orphan receptors (FIG. 10C, FIG. 17 and Supplementary Table 4) (FDR=1%; Benjamini-Hochberg correction). Overall 28 of 39 receptors were activated by at least one odorant, and 68 of 182 odorants activated at least one OR (Table 4). We chose 37 interactions of at least 1.2 fold induction to test individually with a previously developed transient OR assay that has several important differences (FIG. 18). […]
The Dual-Glo Luciferase Assay System (Promega) was used to measure OR-odorant responses as previously described (Zhuang and Matsunami 2008). […] Luminescence was measured using the M1000 plate reader (Tecan). All luminescence values were normalized to Renilla luciferase activity to control for transfection efficiency in a given well. Data were analyzed with Microsoft Excel and R.

MOR19-1 [2] = test: High-throughput multiplexed odorant screening (Smell-seq), 96-well, barcode RNA-seq readout; details: for OR-odorant interaction called as hit in the multiplexed screen: MOR19-1, odorant at 10 uM, 100 uM, 1 mM in triplicate, 3 hours, FDR=1% (Benjamini-Hochberg); for Minimum Activating Concentration: OR MOR 19-1, pair called as hit, FDR=1%
Excerpt: as §1
(§2) 10. High-Throughput Odorant Screening
(§3) The OR library cell line was thawed from a liquid nitrogen frozen stock into a T-225 flask (Corning) three days before seeding into a 96-well plate for screening. The library was seeded at 6,666 cells per well in 100 ul of DMEM. 24 hours later a working concentration of 1 ug/ml of doxycycline in DMEM was added to the wells. 24 hours after induction, the media was removed from each plate and replaced with 25 ul of odorant diluted in OptiMEM. Each odor was added at three different concentrations (10 uM, 100 uM, 1 mM) in triplicate with the same amount of final DMSO (1%). Each plate contained two control odorants at a three concentration (10 uM, 100 uM, 1 mM) in triplicate and three wells containing 1% DMSO dissolved in media. The library was incubated with odorants for three hours in a cell culture incubator with the lids removed.
After odor incubation, media was pipetted out of the plates and cells were lysed by adding 25 uL of ice-cold Cells-to-cDNA II Lysis Buffer (Thermo Fisher) and pipetting up and down to homogenize and lyse cells. The lysate was then heated to 75° C. for 15 minutes and flash frozen with liquid nitrogen and kept at −80 C until further processing. Then 0.5 uL DNase I (New England Biolabs) was added to lysate, and incubated at 37° C. for 15 minutes. To anneal the RT primer, 5 ul of lysate from each well was combined with 2.5 ul of 10 mM dNTPs (New England Biosciences), 1 ul of 2 uM gene specific RT primer (OL003), and 1.5 ul of H2O. The reaction was heated to 65° C. for 5 min and cooled back down to 0° C. […]

MOR131-1 = test: High-throughput multiplexed odorant screening (Smell-seq), barcode RNA-seq readout; details: OR MOR131-1; pair called as hit, FDR=1%
Excerpt: as §1

MOR9-1 = test: as above; details: OR MOR9-1; pair called as hit, FDR=1%
Excerpt: as §1

MOR112-1 = test: as above; details: OR MOR112-1; pair called as hit, FDR=1%
Excerpt: as §1

MOR203-1 = test: as above; details: OR MOR203-1; pair called as hit, FDR=1%
Excerpt: as §1

MOR139-1 = test: as above; details: OR MOR139-1; pair called as hit, FDR=1%
Excerpt: as §1

MOR170-1 = test: High-throughput multiplexed odorant screening (Smell-seq), 96-well, barcode RNA-seq readout; details: OR MOR170-1; pair called as hit, FDR=1%
Method: as §2, §3
(§4) After odor incubation, media was pipetted out of the plates and cells were lysed by adding 25 uL of ice-cold Cells-to-cDNA II Lysis Buffer (Thermo Fisher) and pipetting up and down to homogenize and lyse cells. The lysate was then heated to 75° C. for 15 minutes and flash frozen with liquid nitrogen and kept at −80 C until further processing. Then 0.5 uL DNase I (New England Biolabs) was added to lysate, and incubated at 37° C. for 15 minutes. To anneal the RT primer, 5 ul of lysate from each well was combined with 2.5 ul of 10 mM dNTPs (New England Biosciences), 1 ul of 2 uM gene specific RT primer (OL003), and 1.5 ul of H2O. The reaction was heated to 65° C. for 5 min and cooled back down to 0° C. After annealing, 1 ul of M-MuLV Reverse Transcriptase (Enzymatics), 1 ul of buffer, and 0.25 ul of RNase Inhibitor (Enzymatics) were added to each reaction. Reactions were incubated at 42° C. for 60 min and the RT enzyme was heat inactivated at 85° C. for 10 min.
(§5) For each batch, qPCR was performed on a few wells (OL005F and OL013) with SYBR FAST qPCR Mastermix to determine the number of cycles necessary for PCR based library preparation. The reaction and cycling conditions are optimized as follows: 95° C. for 3 minutes, 40 cycles of 95° C. for 3 seconds and 60° C. for 20 seconds. After qPCR, 5 ul of each RT reaction was combined with 0.4 ul of 10 uM primers containing sequencing adaptors (OL005F and OL013), 10 ul of NEB-Next Q5 Mastermix (New England Biosciences) and 4.2 ul H2O, the PCR was carried out according to the manufacturer's protocol. The forward primer contains the P7 adaptor sequence and an index identifying the well in the assay and the reverse primer contains the P5 adaptor sequence and an index identifying the plate in the assay. PCR products were pooled together by plate and purified with the DNA Clean and Concentrator Kit. Library concentrations were quantified using a Tape Station 2200 and a Qubit (Thermo Fisher). The libraries were sequenced with two index reads and a single end 75-bp read on a NextSeq 500 in high-output mode (Illumina).
(§6) 11. Analysis of Next-Generation Sequencing Data
(§7) Samples were identified via indexing by their PCR indexes adapters unique for each well (5′ end) and unique for each plate (3′ end). The well barcodes followed the 7 bp indexing scheme in (Illumina Sequencing Library Preparation for Highly Multiplexed Target Capture and Sequencing Matthias Meyer, Martin Kircher, Cold Spring Harb Protoc; 2010; doi:10.1101/pdb.prot5448). The plate indexing scheme followed the Illumina indexing scheme. Sequencing data was demultiplexed and 15 bp barcode sequences were counted with only exact matches by custom python and bash scripts.
(§8) 12. Statistical Methods for Calling Hits
(§9) Count data was then analyzed using the differential expression package EdgeR. To filter out ORs with low representation, we set a cutoff that an OR had to contain at least 0.5% of the reads from more than 399 of the 1954 test samples. This filtered out 3 of 42 ORs which were underrepresented in the cell library (MOR172-1, MOR176-1 and MOR181-1). […]

Olfr62 = test: High-throughput multiplexed odorant screening (Smell-seq), barcode RNA-seq readout; details: OR Olfr62; pair called as hit, FDR=1%
Excerpt: as §1

MOR13-1 = test: High-throughput multiplexed odorant screening (Smell-seq), 96-well, barcode RNA-seq readout; details: OR MOR13-1; pair called as hit, FDR=1%
Excerpt: We find that chemicals with similar features activate similar sets of ORs, including those receptors we deorphanize in this study. For example, the previously orphan MOR13-1 is activated by four chemicals with polar groups attached, in three cases, to stiff non-rotatable scaffolds. Another example is, MOR19-1, which has clear affinity for the salicylate functional group. To better understand how chemical similarity relates to receptor activation without relying on incomplete and sometimes arbitrary chemical descriptors, we used a previously validated computational autoencoder to represent each chemical in a ˜292 dimensional latent space, allowing nearly lossless compression of chemical structure (Data not shown). We find chemicals that activate the same OR tend to cluster distinctly (FIG. 10D, FIG. 20). […] Many, but not all of the receptors. […] Understanding the space of chemicals that activates each OR establishes the groundwork for prediction of novel odorant-OR interactions.
as §2, §3
After odor incubation, media was pipetted out of the plates and cells were lysed by adding 25 uL of ice-cold Cells-to-cDNA II Lysis Buffer (Thermo Fisher) and pipetting up and down to homogenize and lyse cells. The lysate was then heated to 75° C. for 15 minutes and flash frozen with liquid nitrogen and kept at −80 C until further processing. Then 0.5 uL DNase I (New England Biolabs) was added to lysate, and incubated at 37° C. for 15 minutes. […]
For each batch, qPCR was performed on a few wells (OL005F and OL013) with SYBR FAST qPCR Mastermix to determine the number of cycles necessary for PCR based library preparation. […] Library concentrations were quantified using a Tape Station 2200 and a Qubit (Thermo Fisher). The libraries were sequenced with two index reads and a single end 75-bp read on a NextSeq 500 in high-output mode (Illumina). […]

MOR4-1 = test: High-throughput multiplexed odorant screening (Smell-seq), barcode RNA-seq readout; details: OR MOR4-1; pair called as hit, FDR=1%
Excerpt: as §1

MOR23-1 = test: as above; details: OR MOR23-1; pair called as hit, FDR=1%
Excerpt: as §1

MOR5-1 = test: High-throughput multiplexed odorant screening (Smell-seq), 96-well, barcode RNA-seq readout; details: OR MOR5-1; pair called as hit, FDR=1%
Method: as §2, §3, §4, §5, §6, §7, §8, §9

MOR120-1 = test: High-throughput multiplexed odorant screening (Smell-seq), barcode RNA-seq readout; details: OR MOR120-1; pair called as hit, FDR=1%
Excerpt: as §1

MOR142-1 = test: as above; details: OR MOR142-1; pair called as hit, FDR=1%
Excerpt: as §1

MOR158-1 = test: as above; details: OR MOR158-1; pair called as hit, FDR=1%
Excerpt: as §1

CCCCCC(=O)CC [3-Octanone]
Minimum Activating Concentration (MOR133-1): 1000 µM

decanedioic acid (sebacic acid)
Minimum Activating Concentration (MOR165-1): 1000 µM

CCCCCCCCCCOC(C)=O [n-Decyl acetate]
Minimum Activating Concentration (MOR119-1): 100 µM

COC(=O)c1ccccc1O [methyl salicylate]
replication of the hit in the orthogonal transient OR luciferase assay (MOR19-1 [1]): did not replicate
OR-odorant interaction called as hit in the multiplexed screen (MOR19-1 [2]): hits
Minimum Activating Concentration (MOR19-1 [2]): 1000 µM

CC1COCc2cc3c(cc21)C(C)(C)C(C)C3(C)C (stereo not shown) [galaxolide]
Minimum Activating Concentration (MOR131-1): 1000 µM
Minimum Activating Concentration (MOR9-1): 1000 µM
Minimum Activating Concentration (MOR112-1): 100 µM

CC(C=O)Cc1ccc2c(c1)OCO2 (stereo not shown) [helional]
Minimum Activating Concentration (MOR203-1): 1000 µM
Minimum Activating Concentration (MOR139-1): 1000 µM
Minimum Activating Concentration (MOR170-1): 1000 µM

O=Cc1ccccc1 [Benzaldehyde]
Minimum Activating Concentration (Olfr62): 1000 µM
Minimum Activating Concentration (MOR112-1): 1000 µM
Minimum Activating Concentration (MOR13-1): 1000 µM

CCCCCCCCOC=O [Octyl formate]
Minimum Activating Concentration (MOR165-1): 1000 µM

O=C(OCc1ccccc1)c1ccccc1O [benzyl salicylate]
replication of the hit in the orthogonal transient OR luciferase assay (MOR19-1 [1]): did not replicate
OR-odorant interaction called as hit in the multiplexed screen (MOR19-1 [2]): hits
Minimum Activating Concentration (MOR19-1 [2]): 10 µM

CCCCCC(=O)O [Hexanoic Acid]
Minimum Activating Concentration (MOR4-1): 1000 µM
Minimum Activating Concentration (MOR23-1): 1000 µM
Minimum Activating Concentration (MOR5-1): 1000 µM

CCCCC(=O)O [Pentanoic Acid]
Minimum Activating Concentration (MOR4-1): 1000 µM
Minimum Activating Concentration (MOR13-1): 1000 µM

CSSCc1ccco1 [Furfuryl methyl disulfide]
Minimum Activating Concentration (MOR119-1): 1000 µM

CCCCCCCCCS [Nonanethiol]
Minimum Activating Concentration (MOR120-1): 1000 µM

CC(C)(O)CCCC1=CCC(C=O)CC1 (stereo not shown) [Lyral]
Minimum Activating Concentration (MOR120-1): 1000 µM

Cc1occc1SSc1ccoc1C [Bis(2-methyl-3-furyl)disulphide)]
Minimum Activating Concentration (MOR142-1): 1000 µM

CC(=O)C1(C)CC2=C(CCCC2(C)C)CC1C (stereo not shown) [Iso E Super]
Minimum Activating Concentration (MOR158-1): 1000 µM

CC(=O)OCc1ccc2c(c1)OCO2 [Piperonyl acetate]
Minimum Activating Concentration (MOR203-1): 1000 µM
Minimum Activating Concentration (MOR170-1): 1000 µM

From patent US20200255844A1, “MULTIPLEXED RECEPTOR-LIGAND INTERACTION SCREENS” (THE REGENTS OF THE UNIVERSITY OF CALIFORNIA, priority 2017, published 2020)
